What was measured:
Assay in all cases: apparent steady-state kinetics of F420H2-dependent alkene reduction
MSMEG_2027 = biological target: T1, MSMEG_2027 (Mycolicibacterium smegmatis, UniProt A0QU01); assay type: biochemical; settings: substrate inhibition constant; co-substrate F420H2
T1 sequence (A0QU01 1-140): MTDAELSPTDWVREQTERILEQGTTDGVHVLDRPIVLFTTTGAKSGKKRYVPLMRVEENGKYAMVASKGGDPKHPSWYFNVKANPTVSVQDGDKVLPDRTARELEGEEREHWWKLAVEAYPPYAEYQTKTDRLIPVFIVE

MSMEG_2850 [1] = biological target: T2, MSMEG_2850 (Mycolicibacterium smegmatis, UniProt A0QW82); assay type: biochemical; settings: substrate inhibition constant; co-substrate F420H2
T2 sequence (A0QW82 1-140): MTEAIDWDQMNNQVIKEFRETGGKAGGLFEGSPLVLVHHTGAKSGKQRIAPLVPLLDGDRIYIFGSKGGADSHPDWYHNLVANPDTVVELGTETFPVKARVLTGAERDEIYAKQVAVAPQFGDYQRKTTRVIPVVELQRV

MSMEG_2850 [2] = biological target: T2, MSMEG_2850; settings: co-substrate F420H2; apparent value

| Ki (MSMEG_2027) | Ki (MSMEG_2850 [1]) | Km (MSMEG_2850 [2]) | SMILES |
| --- | --- | --- | --- |
| 26.9 ± 11.4 mM | 47.9 ± 10.0 mM |  | CC1=CC(=O)CC(C)(C)C1=O [7a, ketoisophorone] |
|  |  | 180 ± 30 µM | CC1=CC(=O)[C@H]2C[C@@H]1C2(C)C [9a, (1S,5S)-(-)-verbenone] |

From paper doi:10.1101/2023.02.21.529347v1 (biorxiv, 2023)
